Source: ChEMBL document CHEMBL1201862, “PubChem BioAssay data set” (2004)
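Briefly, cells in 96-well plates were exposed to five compound concentrations for 48 h, and endpoints were estimated by linear interpolation. Abbreviation: GI50, concentration required for 50% inhibition of growth.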 The source made the active and inactive calls. Rule as the data show it: active = GI50 up to about 1.1 µM and inactive = higher.

What was measured:
Experiment in all cases: growth of human tumour cells (NCI), 48 h
HT-29 = test system: HT-29
HCT-116 = test system: HCT-116
MDA-MB-231 = test system: MDA-MB-231
MCF7 = test system: MCF7
SK-MEL-28 = test system: SK-MEL-28
SK-MEL-2 = test system: SK-MEL-2
SW-620 = test system: SW-620
NCI-H460 = test system: NCI-H460
SF-539 = test system: SF-539
A498 = test system: A498
COLO 205 = test system: COLO 205
HL-60 = test system: HL-60
BT-549 = test system: BT-549
SK-OV-3 = test system: SK-OV-3
OVCAR-8 = test system: OVCAR-8
OVCAR-5 = test system: OVCAR-5
SK-MEL-5 = test system: SK-MEL-5
MDA-MB-435 = test system: MDA-MB-435
MOLT-4 = test system: MOLT-4
UO-31 = test system: UO-31

Measured: GI50

CC(C)Oc1c(N(Cc2ccccc2)c2ccccc2C2SCCCS2)c(=O)c1=O
inactive: HT-29 2.52 µM | HCT-116 4.05 µM | MDA-MB-231 5.08 µM | MCF7 4.16 µM | SK-MEL-28 11.2 µM | SK-MEL-2 3.32 µM | SW-620 2.71 µM | NCI-H460 3.69 µM | SF-539 2.76 µM | A498 6.9 µM | COLO 205 3.07 µM | HL-60 3.98 µM | BT-549 6.38 µM | SK-OV-3 3.39 µM | OVCAR-8 3.61 µM | OVCAR-5 5.97 µM | SK-MEL-5 4.32 µM | MDA-MB-435 2.74 µM | MOLT-4 3.63 µM | UO-31 6.67 µM

CC(C)[C@H](C)/C=C/[C@@H](C)C1CC[C@H]2[C@@]34C=C[C@]5(C[C@@H](O)CC[C@]5(C)[C@H]3CC[C@]12C)OO4 (stereo not given in full)
inactive: HT-29 23.3 µM | HCT-116 19.3 µM | MDA-MB-231 25.5 µM | MCF7 31.9 µM | SK-MEL-28 34 µM | SK-MEL-2 26.7 µM | SW-620 27.1 µM | NCI-H460 31.8 µM | SF-539 29.6 µM | A498 25.8 µM | COLO 205 31 µM | HL-60 17.2 µM | BT-549 26.9 µM | SK-OV-3 54.8 µM | OVCAR-8 20.8 µM | OVCAR-5 > 100 µM | SK-MEL-5 23.6 µM | MDA-MB-435 29.6 µM | MOLT-4 28.6 µM | UO-31 37.3 µM

CC(=O)OC1COC(n2c(-c3ccc(Cl)cc3)cc(-c3ccccc3)c(C#N)c2=S)C(OC(C)=O)C1OC(C)=O (stereo not given)
inactive: HT-29 26.2 µM | HCT-116 5.52 µM | MDA-MB-231 2.88 µM | MCF7 8.43 µM | SK-MEL-28 > 28.9 µM | SK-MEL-2 12 µM | SW-620 41.1 µM | NCI-H460 19.1 µM | SF-539 4.42 µM | A498 17.4 µM | COLO 205 18.3 µM | HL-60 37.7 µM | BT-549 2.06 µM | SK-OV-3 28.2 µM | OVCAR-8 5.06 µM | OVCAR-5 32.7 µM | SK-MEL-5 8.51 µM | MDA-MB-435 7.19 µM | MOLT-4 50.1 µM | UO-31 17.6 µM

C/C=C(/C)C(=O)O[C@H]1CCN2CC=C(COC(=O)[C@@](O)([C@H](C)OC)C(C)(C)O)[C@H]12
inactive: HT-29 > 100 µM | HCT-116 > 100 µM | MDA-MB-231 > 100 µM | MCF7 > 100 µM | SK-MEL-28 > 100 µM | SK-MEL-2 > 100 µM | SW-620 > 100 µM | NCI-H460 > 10 µM | SF-539 > 100 µM | A498 > 100 µM | COLO 205 > 100 µM | HL-60 > 100 µM | BT-549 > 100 µM | SK-OV-3 > 100 µM | OVCAR-8 > 100 µM | OVCAR-5 > 100 µM | SK-MEL-5 > 100 µM | MDA-MB-435 > 100 µM | MOLT-4 > 100 µM | UO-31 > 100 µM
